Measurements as given in patent publication US6271342A, “Sugar-modified cytostatics” (Bayer Aktiengesellschaft, priority 1995, dated 2001).
Structures can show the parent of a compound that is named as a salt.

Experiments:
Assay in all cases: Growth inhibition test (MTT) for cytotoxic properties
HT 29 = type: cell-based, human
Protocol: (§1) Growth Inhibition Test for Determination of the Cytotoxic Properties of Glycoconjugates of Batracyline and of Quinolone-a
(§2) The human colon cell lines SW 480 and HT 29 (ATCC no. CCL 228 and HBT-38) and the mouse melanoma cell line B 16 F 10 were cultured in Roux dishes in RPMI 1640 medium with addition of 10% FCS. The cultures were then trypsinized and taken up in RPMI plus 10% FCS to a cell count of 50,000 cells/ml. 100 μl of cell suspension/well were introduced into a 96 microwell plate and incubated for 1 day at 37° C. in a CO2 incubating cabinet. A further 100 μl of RPMI medium and 1 μl of dimethyl sulphoxide with the test substances were then added. The growth was checked after day 3 and day 6. 40 μl of MTT solution (3-(4,5-dimethylthiazol-2-yl)-2,5-diphenyltetrazoline bromide) with an initial concentration of 5 mg/ml of H2 O were added to each microwave. The plate was incubated for 5 hours in a CO2 incubating cabinet at 37° C. The medium was then sucked off and 100 μl of i-propanol/well were added. After shaking for 30 minutes with 100 μl of H2 O, the extinction was measured at 540 nm with a Titertek Multiskan MCC/340 (Flow).
(§3) The cytotoxic action of the glycoconjugates of batracyline described is shown in Table 1a as the IC50 value in each case for the SW 480 and HT 29 cell lines.

SW 480 = type: cell-based, human
Protocol: as §1, §2, §3

B 16 F 10 = type: cell-based, mouse; conditions: Table 1b
Protocol: as §1, §2

[1] = Table 1a, glycoconjugates of batracyline

CCC1(OC(=O)C(C)NC(=O)C(CCCCNC(=S)Nc2ccc(OC3OC(C)C(O)C(OC)C3O)cc2)NC(=S)Nc2ccc(OC3OC(C)C(O)C(OC)C3O)cc2)C(=O)OCc2c1cc1n(c2=O)Cc2cc3ccccc3nc2-1 [Example 18.1, 20-O-{N^α,N^ε -Bis-[O-(3-O-methyl-β-L-fucopyranosyl)-4-hydroxy-phenylamino-thiocarbonyl]-lysyl-alanyl}-camptothecin]
IC50 (HT 29; Table 1b): 0.01 µM
IC50 (SW 480; Table 1b): 0.03 µM
IC50 (B 16 F 10): 0.2 µM

CC1OC(Oc2ccc(NC(=S)NC3C=CCC4CN(c5c(F)cc6c(=O)c(C(=O)O)cn(C7CC7)c6c5Cl)CC43)cc2)C(O)C(OCC(=O)O)C1O (mixture of isomers) [Example 12.12, N-[O-(3-O-Carboxymethyl-β-L-fucosyl)-4hydroxy-phenylamino-thiocarbonyl-quinolone-a, di-sodium salt]
IC50 (HT 29; Table 1b): 13 µM
IC50 (SW 480; Table 1b): 8 µM
IC50 (B 16 F 10): 0.5 µM

COC1C(O)C(C)OC(Oc2ccc(NC(=S)NC3C=CCC4CN(c5c(F)cc6c(=O)c(C(=O)O)cn(C7CC7)c6c5Cl)CC43)cc2)C1O [Example 12.13, N-[O-(3-O-Methyl-β-L-fucosyl)-4-hydroxy-phenylamino-thiocarbonyl]-quin olone-a]
IC50 (HT 29; Table 1b): 100 µM
IC50 (SW 480; Table 1b): 35 µM
IC50 (B 16 F 10): 1 µM

CCC1(OC(=O)[C@@H](NC(=O)[C@H](CCCCN)NC(=S)Nc2ccc(O[C@H]3O[C@@H](C)[C@@H](O)[C@@H](OCC(=O)O)[C@@H]3O)cc2)C(C)C)C(=O)OCc2c1cc1n(c2=O)Cc2cc3ccccc3nc2-1 (stereo partly drawn) [Example 18.9, 20-O-{N^α [O-(3-O-Carboxymethyl-β-L-fucopyranosyl)-4-hydroxy-phenylamino-thiocarbonyl]-lysyl-valinyl}-camptothecin, hydrochloride]
IC50 (HT 29; Table 1b): 0.06 µM
IC50 (SW 480; Table 1b): 0.08 µM
IC50 (B 16 F 10): 0.7 µM

Cc1csc2c(C(=O)O)c(=O)c3cc(F)c(N4CC5C(C)C=CC(NC(=O)C(CCCCN)NC(=S)Nc6ccc(OC7OC(C)C(O)C(OCC(=O)O)C7O)cc6)C5C4)cc3n12 (mixture of isomers) [Example 14.3, N-{N^α -[O-(3-O-Carboxymethyl-β-L-fucosyl)-4-hydroxy-phenylamino-thiocarbonyl]-lysyl}-quinolone-c, di-sodium salt]
IC50 (HT 29; Table 1b): 4 µM
IC50 (SW 480; Table 1b): 8 µM
IC50 (B 16 F 10): 4 µM

COC1C(O)C(C)OC(Oc2ccc(NC(=S)NC(C)C(=O)NC(C)C(=O)NC(Cc3ccc(N(CCCl)CCCl)cc3)C(=O)O)cc2)C1O [Example 16.2, N-{N'-[O-(3-O-Methyl-β-L-fucopyranosyl)-4-hydroxy-phenylamino-thiocarbonyl]-alanyl-alanyl}-melphalan]
IC50 (HT 29; Table 1b): 60 µM
IC50 (SW 480; Table 1b): 50 µM
IC50 (B 16 F 10): 80 µM

CCC1(OC(=O)C(C)NC(=O)C(CCCCN)NC(=S)Nc2ccc(OC3OC(C)C(O)C(OCC(=O)O)C3O)cc2)C(=O)OCc2c1cc1n(c2=O)Cc2cc3ccccc3nc2-1 (stereo not drawn) [Example 18.2, 20-O-{N^α -[O-(3-O-Carboxymethyl-β-fucopyranosyl)-4hydroxy-phenylamino-thiocarbonyl]-lysyl-alanyl}-camptothecin]
IC50 (HT 29; Table 1b): 0.02 µM
IC50 (SW 480; Table 1b): 0.02 µM
IC50 (B 16 F 10): 0.2 µM

COC[C@H]1O[C@@H](Oc2ccc(NC(=S)N[C@@H](CCCCN)C(=O)NC3C=CCC4CN(c5c(F)cc6c(=O)c(C(=O)O)cn(C7CC7)c6c5Cl)CC43)cc2)[C@H](O)[C@@H](OC)[C@H]1O (stereo partly drawn) [Example 12.9, N-{N^α -[O-(3,6-Di-O-methyl-β-D-galactopyranosyl)-4-hydroxy-phenylamino-thiocarbonyl]-lysyl}-quinolone-a, hydrochloride]
IC50 (HT 29; Table 1b): 8 µM
IC50 (SW 480; Table 1b): 4 µM
IC50 (B 16 F 10): 2 µM

N-{N^α -[O-(3,4-Di-O-methyl-β-D-galactopyranosyl)-4-hydroxy-phenylamino-thio carbonyl]-N^ε -[O-(3-O-(piperidyl-N)-carbonylmethyl-β-D-galactopyranosyl)-4-hydroxy -phenylamino-thiocarbonyl]-lysyl-D-alanyl}-batracyline [Example 5.15]
IC50 (HT 29; [1]): 70 µM
IC50 (SW 480; [1]): > 250 µM

CO[C@H]1[C@H](O)[C@@H](Oc2ccc(NC(=S)N[C@@H](C)C(=O)NC3C=CCC4CN(c5c(F)cc6c(=O)c(C(=O)O)cn(C7CC7)c6c5Cl)CC43)cc2)O[C@@H](C)[C@H]1O (some centres unmarked) [Example 12.2]
IC50 (SW 480; Table 1b): 4 µM
IC50 (B 16 F 10): 0.8 µM

N-{N^ε -O-(2-O-Methyl-β-L-fucosyl)-4-hydroxy-phenylamino-thiocarbonyl]-lysyl -D-alanyl}-batracyline [Example 3.2]
IC50 (HT 29; [1]): 75 µM
IC50 (SW 480; [1]): 100 µM

N-{N^α,N^ε -Bis-[O-(3-O-methyl-α-D-mannopyranosyl)-4-hydroxy-phenylamino-thioca rbonyl]-lysyl-seryl}-batracyline [Example 6.36]
IC50 (HT 29; [1]): 70 µM
IC50 (SW 480; [1]): 70 µM

N-{N^α -[O-(3-O-Methyl-α-D-mannopyranosyl)-4-hydroxy-phenylamino-thiocarbon yl]-lysyl-D-alanyl}-batracyline [Example 4.12]
IC50 (HT 29; [1]): 9 µM
IC50 (SW 480; [1]): 15 µM

COC1C(C)OC(Oc2ccc(NC(=S)NCCCCC(NC(=S)Nc3ccc(OC4OC(C)C(OC)C(O)C4O)cc3)C(=O)NC(C)C(=O)Nc3ccc4nc5n(c(=O)c4c3)Cc3ccccc3-5)cc2)C(O)C1O [Example 6.3, N-{N^α,N^ε -Bis-[O-(4-O-methyl-β-L-fucosyl)-4-hydroxy-phenylamino-thiocarbonyl]-lysyl-D-alanyl}-batracyline]
IC50 (HT 29; [1]): 105 µM
IC50 (SW 480; [1]): 70 µM

N-{N^α,N^ε -Bis-[O-(α-L-rhamnosyl)-4-hydroxy-phenylamino-thiocarbonyl]-lysyl-D- alanyl}-batracyline [Example 6.15]
IC50 (HT 29; [1]): > 250 µM
IC50 (SW 480; [1]): > 250 µM

N-{N^α -[O-(3-O-Methoxycarbonylmethyl-β-D-galactopyranosyl)-4-hydroxyphenyla mino-thiocarbonyl]-N^ε -[O-(3,4-di-O-methyl-β-D-galactopyranosyl)-4-hydroxy-phenylamino-thio carbonyl]-lysyl-D-alanyl}-batracyline [Example 5.12]
IC50 (HT 29; [1]): 20 µM
IC50 (SW 480; [1]): 20 µM

N-{N^α -[-(3-O-Carbamoylmethyl-β-D-galactopyranosyl)-4-hydroxy-phenylamino-t hiocarbonyl]-lysyl-D-alanyl}-batracyline [Example 4.10]
IC50 (HT 29; [1]): 30 µM
IC50 (SW 480; [1]): 30 µM

N-{N-[O-(α-D-Mannopyranosyl)-4-hydroxy-phenylamino-thiocarbonyl]-lysy l-D-alanyl}-batracyline [Example 4.11]
IC50 (HT 29; [1]): 15 µM
IC50 (SW 480; [1]): 15 µM

N-{N^α,N^ε -Bis-[O-(3-O-carboxymethyl-β-L-fucosyl)-4-hydroxy-phenylamino-thiocar bonyl]-lysyl}-batracyline [Example 6.25]
IC50 (HT 29; [1]): 40 µM
IC50 (SW 480; [1]): 50 µM

COC1C(O)C(C)OC(Oc2ccc(NC(=S)NCCCCC(NC(=S)Nc3ccc(OC4OC(C)C(O)C(OCC(=O)O)C4O)cc3)C(=O)NC(C)C(=O)Nc3ccc4nc5n(c(=O)c4c3)Cc3ccccc3-5)cc2)C1O [Example 5.1, N-{N^α -[O-(3-O-Carboxymethyl-β-L-fucosyl)-4-hydroxyphenylaminothiocarbonyl] -N^ε -[O-(3-O-methyl-β-L-fucosyl)-4-hydroxyphenylaminothiocarbonyl]-lysyl-D-alanyl}-batracyline]
IC50 (HT 29; [1]): 45 µM
IC50 (SW 480; [1]): 55 µM

N-{N-[O-(3-O-Carbamoylmethyl-β-D-galactopyranosyl)-4-hydroxy-phenylami no-thiocarbonyl]-D-alanyl}-batracyline [Example 7.12]
IC50 (HT 29; [1]): 10 µM
IC50 (SW 480; [1]): 10 µM

N-{N-[O-(3-O-Carboxymethyl-β-D-galactopyranosyl)-4-hydroxy-phenylamino -thiocarbonyl]-D-alanyl}-batracyline, sodium salt [Example 7.11]
IC50 (HT 29; [1]): 25 µM
IC50 (SW 480; [1]): 30 µM

N-{N^α -[O-(3-O-Methyl-β-L-fucosyl)-4-hydroxyphenylamino-thiocarbonyl]-N. sup.ε -[O-(3-O-carboxymethyl-β-L-fucosyl)-4-hydroxyphenylamino-thiocarbonyl ]-lysyl-D-alanyl}-batracyline [Example 5.2]
IC50 (HT 29; [1]): 55 µM
IC50 (SW 480; [1]): 20 µM

N-{N^α,N^ε -Bis-[O-(3-O-methyl-β-L-fucosyl)-4-hydroxy-phenylamino-thiocarbonyl]- lysyl-D-seryl}-batracyline [Example 6.23]
IC50 (HT 29; [1]): 45 µM
IC50 (SW 480; [1]): 107 µM

N-{N^α -[O-(3-O-Carbamoylmethyl-β-D-galactopyranosyl)-4-hydroxy-phenylamino- thiocarbonyl]-N^ε -[O-(3-O-carboxymethyl-β-D-galactopyranosyl)-4-hydroxy-phenylamino-th iocarbonyl]-lysyl-D-alanyl}-batracyline, sodium salt [Example 5.20]
IC50 (HT 29; [1]): 30 µM
IC50 (SW 480; [1]): 50 µM

N-{N^α,N^ε -Bis-10-(3-O-carbamoylmethyl-β-D-galactopyranosyl)-4-hydroxy-phenylam ino-thiocarbonyl]-lysyl-glycyl}-batracyline [Example 6.60]
IC50 (HT 29; [1]): 40 µM
IC50 (SW 480; [1]): 50 µM

N-{N^α,N^ε -Bis-[O-(3-O-carboxymethyl-β-D-galactopyranosyl)-4-hydroxy-phenylamin o-thiocarbonyl]-lysyl-glycyl}-batracyline, di-sodium salt [Example 6.59]
IC50 (HT 29; [1]): 50 µM
IC50 (SW 480; [1]): 50 µM
